Assay type in all cases: biochemical
One test has as its target CDK9/CyclinT1 (Homo sapiens (Human), UniProt P50750). The test can be described thus: CDK9/CyclinT1 kinase inhibitory activity (Caliper mobility shift). The conditions noted are these: read-out: CDK9/Cyclin T1 IC50.
The next test deals with CDK6/CyclinD1 (Homo sapiens (Human), UniProt Q00534). The test can be described thus: CDK6/CyclinD1 kinase inhibitory activity (Caliper mobility shift). The conditions noted are these: read-out: CDK6/Cyclin D1 IC50.
Chain of CDK6/CyclinD1 (Q00534 whole entry): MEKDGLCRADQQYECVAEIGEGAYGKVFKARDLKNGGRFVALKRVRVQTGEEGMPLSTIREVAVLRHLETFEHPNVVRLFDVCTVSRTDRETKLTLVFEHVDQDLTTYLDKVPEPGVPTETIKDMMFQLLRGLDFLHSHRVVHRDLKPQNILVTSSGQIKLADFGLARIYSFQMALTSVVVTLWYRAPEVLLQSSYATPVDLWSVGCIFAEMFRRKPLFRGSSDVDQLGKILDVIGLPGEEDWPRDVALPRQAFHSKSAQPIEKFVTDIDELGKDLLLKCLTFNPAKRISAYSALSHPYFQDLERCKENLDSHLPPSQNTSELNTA
Chain of CDK6/CyclinD1 (P24385 whole entry partner): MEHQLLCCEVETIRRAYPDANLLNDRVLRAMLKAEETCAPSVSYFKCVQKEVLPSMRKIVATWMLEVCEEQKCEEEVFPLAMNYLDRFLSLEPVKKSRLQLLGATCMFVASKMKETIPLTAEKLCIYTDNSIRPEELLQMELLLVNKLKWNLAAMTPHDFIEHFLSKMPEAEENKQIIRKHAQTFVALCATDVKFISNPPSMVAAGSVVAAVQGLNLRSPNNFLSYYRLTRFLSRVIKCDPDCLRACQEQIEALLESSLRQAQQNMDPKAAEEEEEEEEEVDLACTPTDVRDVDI
Another test has as its target CDK7/CyclinH/MAT1 (Homo sapiens (Human), UniProt P50613). Put plainly: CDK7/CyclinH/MAT1 kinase inhibitory activity (Caliper mobility shift).
For the next test, the target named is CDK1/CyclinB (Homo sapiens (Human), UniProt P06493). Put plainly: CDK1/CyclinB kinase inhibitory activity (Caliper mobility shift). The conditions noted are these: read-out: CDK1/Cyclin B1 IC50.
Chain of CDK1/CyclinB (P06493 whole entry): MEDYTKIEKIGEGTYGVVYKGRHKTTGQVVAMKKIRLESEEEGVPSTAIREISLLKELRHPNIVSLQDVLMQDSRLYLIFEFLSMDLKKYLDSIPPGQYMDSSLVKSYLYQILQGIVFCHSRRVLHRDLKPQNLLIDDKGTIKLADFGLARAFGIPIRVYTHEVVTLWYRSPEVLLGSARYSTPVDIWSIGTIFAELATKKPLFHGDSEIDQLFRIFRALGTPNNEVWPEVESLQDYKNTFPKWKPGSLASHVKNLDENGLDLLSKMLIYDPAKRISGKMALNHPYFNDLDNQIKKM
Chain of CDK1/CyclinB (P14635 whole entry partner): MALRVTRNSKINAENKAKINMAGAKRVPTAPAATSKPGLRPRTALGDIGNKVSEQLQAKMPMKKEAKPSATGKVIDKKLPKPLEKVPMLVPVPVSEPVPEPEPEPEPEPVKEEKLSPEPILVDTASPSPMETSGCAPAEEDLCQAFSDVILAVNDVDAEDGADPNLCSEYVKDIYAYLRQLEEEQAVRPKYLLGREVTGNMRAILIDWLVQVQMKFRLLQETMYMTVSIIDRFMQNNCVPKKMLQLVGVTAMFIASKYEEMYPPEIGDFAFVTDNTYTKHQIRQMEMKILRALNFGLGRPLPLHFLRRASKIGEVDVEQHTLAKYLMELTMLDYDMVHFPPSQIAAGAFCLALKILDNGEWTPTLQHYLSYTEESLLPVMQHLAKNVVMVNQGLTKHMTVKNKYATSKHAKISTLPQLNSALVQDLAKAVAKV
Another test has as its target CDK4/Cyclin D1 (Homo sapiens (Human), UniProt P11802). Put plainly: CDK4/CyclinD1 kinase inhibitory activity (Caliper mobility shift).
Another test concerns the target CDK2/CyclinE1 (Homo sapiens (Human), UniProt P24941). The test can be described thus: CDK2/CyclinE1 kinase inhibitory activity (Caliper mobility shift). To be noted: read-out: CDK2/Cyclin El IC50.

Chain of CDK4/Cyclin D1 (P11802 whole entry): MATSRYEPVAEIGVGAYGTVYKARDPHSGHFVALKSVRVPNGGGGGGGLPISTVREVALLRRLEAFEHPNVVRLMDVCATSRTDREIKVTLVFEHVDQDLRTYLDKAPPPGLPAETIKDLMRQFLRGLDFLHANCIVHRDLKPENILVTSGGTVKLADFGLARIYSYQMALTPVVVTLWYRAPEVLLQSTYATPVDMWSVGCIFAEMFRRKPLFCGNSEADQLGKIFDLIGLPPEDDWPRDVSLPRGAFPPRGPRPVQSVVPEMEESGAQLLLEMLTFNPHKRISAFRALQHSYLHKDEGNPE
Chain of CDK4/Cyclin D1 (P24385 whole entry partner): as the sequence (P24385 whole entry partner) above
Chain of CDK9/CyclinT1 (P50750 whole entry): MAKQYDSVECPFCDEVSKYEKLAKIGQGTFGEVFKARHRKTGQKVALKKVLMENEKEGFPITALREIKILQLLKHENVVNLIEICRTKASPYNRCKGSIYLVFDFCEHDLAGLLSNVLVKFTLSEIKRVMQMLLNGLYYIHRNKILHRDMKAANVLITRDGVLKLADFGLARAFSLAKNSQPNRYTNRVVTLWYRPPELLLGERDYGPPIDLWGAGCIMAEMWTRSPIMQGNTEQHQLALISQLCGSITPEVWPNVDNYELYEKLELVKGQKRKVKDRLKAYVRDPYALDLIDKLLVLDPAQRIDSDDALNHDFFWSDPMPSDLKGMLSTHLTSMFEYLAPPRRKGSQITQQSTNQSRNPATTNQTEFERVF
Chain of CDK9/CyclinT1 (O60563 whole entry partner): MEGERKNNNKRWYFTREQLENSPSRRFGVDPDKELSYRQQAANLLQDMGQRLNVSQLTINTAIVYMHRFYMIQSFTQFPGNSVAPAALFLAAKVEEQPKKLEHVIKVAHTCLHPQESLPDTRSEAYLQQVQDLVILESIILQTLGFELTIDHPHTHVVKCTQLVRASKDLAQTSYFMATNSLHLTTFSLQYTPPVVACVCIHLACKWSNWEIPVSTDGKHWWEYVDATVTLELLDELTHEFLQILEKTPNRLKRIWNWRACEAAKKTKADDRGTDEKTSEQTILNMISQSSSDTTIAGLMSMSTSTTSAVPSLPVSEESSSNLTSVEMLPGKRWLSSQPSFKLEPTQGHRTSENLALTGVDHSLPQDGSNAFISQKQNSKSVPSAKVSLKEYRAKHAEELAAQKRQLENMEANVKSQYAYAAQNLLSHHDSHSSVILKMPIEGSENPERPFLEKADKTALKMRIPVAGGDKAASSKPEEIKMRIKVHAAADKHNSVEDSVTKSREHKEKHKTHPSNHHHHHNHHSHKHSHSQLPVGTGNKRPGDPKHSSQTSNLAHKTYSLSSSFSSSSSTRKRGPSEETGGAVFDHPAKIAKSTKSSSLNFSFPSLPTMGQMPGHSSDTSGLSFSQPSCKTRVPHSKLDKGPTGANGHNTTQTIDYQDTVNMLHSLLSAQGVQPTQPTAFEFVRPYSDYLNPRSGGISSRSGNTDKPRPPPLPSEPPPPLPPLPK
Chain of CDK7/CyclinH/MAT1 (P50613 whole entry): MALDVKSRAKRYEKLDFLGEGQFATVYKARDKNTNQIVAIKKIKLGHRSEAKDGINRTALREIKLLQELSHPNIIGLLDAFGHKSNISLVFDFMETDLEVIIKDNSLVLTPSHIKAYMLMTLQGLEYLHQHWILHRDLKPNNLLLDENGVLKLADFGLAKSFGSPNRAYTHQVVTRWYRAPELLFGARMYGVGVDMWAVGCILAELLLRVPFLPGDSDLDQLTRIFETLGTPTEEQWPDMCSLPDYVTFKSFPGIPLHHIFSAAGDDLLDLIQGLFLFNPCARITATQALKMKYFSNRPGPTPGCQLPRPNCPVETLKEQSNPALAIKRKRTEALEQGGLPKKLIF
Chain of CDK7/CyclinH/MAT1 (P51946 whole entry partner): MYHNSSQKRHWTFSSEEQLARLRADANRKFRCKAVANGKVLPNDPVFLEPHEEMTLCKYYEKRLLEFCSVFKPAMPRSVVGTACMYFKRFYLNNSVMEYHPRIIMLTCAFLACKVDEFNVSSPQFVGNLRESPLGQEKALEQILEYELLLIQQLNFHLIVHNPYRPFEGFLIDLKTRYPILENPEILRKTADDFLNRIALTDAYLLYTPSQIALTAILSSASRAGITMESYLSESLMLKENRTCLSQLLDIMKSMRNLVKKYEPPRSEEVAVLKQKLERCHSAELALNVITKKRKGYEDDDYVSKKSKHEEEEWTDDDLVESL
Chain of CDK7/CyclinH/MAT1 (P51948 whole entry partner): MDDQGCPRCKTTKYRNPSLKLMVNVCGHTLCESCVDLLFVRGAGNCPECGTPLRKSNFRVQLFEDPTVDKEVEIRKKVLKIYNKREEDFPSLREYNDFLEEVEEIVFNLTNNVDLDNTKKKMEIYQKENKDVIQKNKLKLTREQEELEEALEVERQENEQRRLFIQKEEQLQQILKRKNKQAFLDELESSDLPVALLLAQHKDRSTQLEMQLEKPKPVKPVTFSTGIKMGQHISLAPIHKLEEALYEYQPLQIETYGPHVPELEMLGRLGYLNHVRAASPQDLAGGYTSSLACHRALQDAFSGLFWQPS

Turning to `CC(C)NS(=O)(=O)c1ccc(Nc2ncc(C#N)c(OC3CCCC3(C)O)n2)cc1` (single isomer, unassigned) [Example 35a], the IC50 on CDK9/CyclinT1 is 10 to 100 nM; at CDK6/CyclinD1, 10 to 100 nM; at CDK7/CyclinH/MAT1 it was 10 to 100 nM; at CDK1/CyclinB, less than 10 nM; on CDK4/Cyclin D1, 10 to 100 nM; on CDK2/CyclinE1, less than 10 nM.

On to `CCS(=O)(=O)N1CCC(Nc2ncc(C#N)c(OC3CCCC3(C)O)n2)CC1` (single isomer, unassigned) [Example 36b], for which the IC50 is 100 to 1000 nM at CDK9/CyclinT1; 10 to 100 nM on CDK6/CyclinD1; 100 to 1000 nM on CDK7/CyclinH/MAT1; 10 to 100 nM at CDK1/CyclinB; less than 10 nM on CDK4/Cyclin D1; less than 10 nM on CDK2/CyclinE1.

In the case of `CC1(O)CCCC1Oc1nc(NC2CCN(S(=O)(=O)CF)CC2)ncc1C#N` (single isomer, unassigned) [Example 37a], the IC50 is 100 to 1000 nM at CDK9/CyclinT1; 10 to 100 nM at CDK6/CyclinD1; 10 to 100 nM on CDK7/CyclinH/MAT1; 10 to 100 nM at CDK1/CyclinB; less than 10 nM at CDK4/Cyclin D1; less than 10 nM at CDK2/CyclinE1.

In the case of `CC1(O)CCCC1Oc1nc(NC2CCN(S(=O)(=O)CC3CC3)CC2)ncc1C#N` (single isomer, unassigned) [Example 38a], the IC50 was 100 to 1000 nM on CDK9/CyclinT1; less than 10 nM at CDK6/CyclinD1; 10 to 100 nM at CDK7/CyclinH/MAT1; 10 to 100 nM on CDK1/CyclinB; less than 10 nM on CDK4/Cyclin D1; less than 10 nM at CDK2/CyclinE1.

On to `CC(C)CS(=O)(=O)N1CCC(Nc2ncc(C#N)c(OC3CCCC3(C)O)n2)CC1` (single isomer, unassigned) [Example 39a], for which the IC50 at CDK9/CyclinT1 is 100 to 1000 nM; at CDK6/CyclinD1, less than 10 nM; at CDK7/CyclinH/MAT1, 100 to 1000 nM; on CDK1/CyclinB, 10 to 100 nM; at CDK4/Cyclin D1 it was 10 to 100 nM; on CDK2/CyclinE1 it was less than 10 nM.

Consider `CC1(O)CCCC1Oc1nc(NC2CCN(S(=O)(=O)CC3CCOC3)CC2)ncc1C#N` (single isomer, unassigned) [Example 40a], for which the IC50 at CDK9/CyclinT1 was 100 to 1000 nM; on CDK6/CyclinD1, less than 10 nM; on CDK7/CyclinH/MAT1, 100 to 1000 nM; on CDK1/CyclinB, 10 to 100 nM; at CDK4/Cyclin D1 it was less than 10 nM; on CDK2/CyclinE1, less than 10 nM.

Consider `CC1(O)CCCC1Oc1nc(NC2CCN(S(=O)(=O)CC(F)(F)F)CC2)ncc1C#N` (single isomer, unassigned) [Example 43a], for which the IC50 on CDK9/CyclinT1 was 100 to 1000 nM; at CDK6/CyclinD1, 10 to 100 nM; on CDK7/CyclinH/MAT1, 100 to 1000 nM; on CDK1/CyclinB it was 10 to 100 nM; on CDK4/Cyclin D1 it was less than 10 nM; at CDK2/CyclinE1, less than 10 nM.

For the molecule `CC1(O)CC(F)(F)CC1Oc1nc(NC2CCN(S(=O)(=O)CC3CC3)CC2)ncc1C#N` (single isomer, unassigned) [Example 44b], the IC50 is 100 to 1000 nM on CDK9/CyclinT1; less than 10 nM on CDK6/CyclinD1; 10 to 100 nM on CDK7/CyclinH/MAT1; 10 to 100 nM at CDK1/CyclinB; 10 to 100 nM on CDK4/Cyclin D1; less than 10 nM on CDK2/CyclinE1.

As for `CC1(O)COCCC1Oc1nc(NC2CCN(S(C)(=O)=O)CC2)ncc1C#N` (single isomer, unassigned) [Example 45a], the IC50 on CDK9/CyclinT1 was 100 to 1000 nM; on CDK6/CyclinD1 it was 10 to 100 nM; on CDK7/CyclinH/MAT1, 10 to 100 nM; at CDK1/CyclinB it was 10 to 100 nM; at CDK4/Cyclin D1 it was 10 to 100 nM; on CDK2/CyclinE1, less than 10 nM.

`CC1(O)CCC(F)(F)CC1Oc1nc(NC2CCN(S(C)(=O)=O)CC2)ncc1C#N` (single isomer, unassigned) [Example 46b]: the IC50 on CDK9/CyclinT1 was 10 to 100 nM; at CDK6/CyclinD1 it was less than 10 nM; on CDK7/CyclinH/MAT1, less than 10 nM; at CDK1/CyclinB, less than 10 nM; on CDK4/Cyclin D1 it was less than 10 nM; on CDK2/CyclinE1, less than 10 nM.

Regarding `CC1(O)CC(F)(F)CCC1Oc1nc(NC2CCN(S(C)(=O)=O)CC2)ncc1C#N` (single isomer, unassigned) [Example 47a], the IC50 on CDK9/CyclinT1 was 100 to 1000 nM; on CDK6/CyclinD1, less than 10 nM; at CDK7/CyclinH/MAT1, 10 to 100 nM; on CDK1/CyclinB, 10 to 100 nM; at CDK4/Cyclin D1 it was less than 10 nM; at CDK2/CyclinE1 it was less than 10 nM.

With `CC1(O)CC(F)(F)CCC1Oc1nc(NC2CCN(S(C)(=O)=O)CC2)ncc1C#N` (single isomer, unassigned) [Example 47b], the IC50 on CDK9/CyclinT1 is no less than 1000 nM; at CDK6/CyclinD1 it was 100 to 1000 nM; on CDK7/CyclinH/MAT1, no less than 1000 nM; on CDK1/CyclinB, no less than 1000 nM; on CDK4/Cyclin D1 it was 100 to 1000 nM; on CDK2/CyclinE1, 100 to 1000 nM.

As to `Cn1cc(S(=O)(=O)N2CCC(Nc3ncc(C#N)c(OC4CCCC4(C)O)n3)CC2)cn1` (single isomer, unassigned) [Example 48a], the IC50 is 100 to 1000 nM at CDK9/CyclinT1; less than 10 nM on CDK6/CyclinD1; 10 to 100 nM on CDK7/CyclinH/MAT1; less than 10 nM on CDK1/CyclinB; less than 10 nM at CDK4/Cyclin D1; less than 10 nM on CDK2/CyclinE1.

For `Cn1cnc(S(=O)(=O)N2CCC(Nc3ncc(C#N)c(OC4CCCC4(C)O)n3)CC2)c1` (single isomer, unassigned) [Example 50a], the IC50 is 100 to 1000 nM on CDK9/CyclinT1; less than 10 nM at CDK6/CyclinD1; 100 to 1000 nM at CDK7/CyclinH/MAT1; less than 10 nM on CDK1/CyclinB; less than 10 nM at CDK4/Cyclin D1; less than 10 nM on CDK2/CyclinE1.

Regarding `NS(=O)(=O)c1ccc(Nc2ncc(C(F)(F)F)c(O[C@@H]3CCC[C@@H]3O)n2)cc1` (single isomer, unassigned) [Example 99a, cis-4-((4-((2-hydroxycyclopentyl)oxy)-5-(trifluoromethyl)pyrimidin-2-yl)amino)benzenesulfonamide], the IC50 is 10 to 100 nM on CDK9/CyclinT1; 10 to 100 nM at CDK6/CyclinD1; 100 to 1000 nM at CDK7/CyclinH/MAT1; 10 to 100 nM at CDK1/CyclinB; 100 to 1000 nM on CDK4/Cyclin D1; less than 10 nM on CDK2/CyclinE1.

With `[2H]C([2H])([2H])NS(=O)(=O)c1ccc(Nc2ncc(C(F)(F)F)c(O[C@H]3CCOC[C@H]3O)n2)cc1` (single isomer, unassigned) [Example 100a, cis-4-((4-((3-hydroxytetrahydro-2H-pyran-4-yl)oxy)-5-(trifluoromethyl)pyrimidin-2-yl)amino)-N-(methyl-d3)benzenesulfonamide], the IC50 was 100 to 1000 nM on CDK9/CyclinT1; 100 to 1000 nM at CDK6/CyclinD1; 100 to 1000 nM on CDK7/CyclinH/MAT1; 10 to 100 nM at CDK1/CyclinB; 100 to 1000 nM at CDK4/Cyclin D1; less than 10 nM on CDK2/CyclinE1.

With `[2H]C([2H])([2H])NS(=O)(=O)c1ccc(Nc2ncc(C(F)(F)F)c(O[C@H]3CCOC[C@H]3O)n2)c(F)c1` (single isomer, unassigned) [Example 101a, cis-3-fluoro-4-((4-((3-hydroxytetrahydro-2H-pyran-4-yl)oxy)-5-(trifluoromethyl)pyrimidin-2-yl)amino)-N-(methyl-d3)benzenesulfonamide], the IC50 on CDK9/CyclinT1 was no less than 1000 nM; on CDK6/CyclinD1, no less than 1000 nM; on CDK7/CyclinH/MAT1, no less than 1000 nM; at CDK1/CyclinB it was 100 to 1000 nM; at CDK4/Cyclin D1, no less than 1000 nM; at CDK2/CyclinE1, less than 10 nM.

`[2H]C([2H])([2H])NS(=O)(=O)c1ccc(Nc2ncc(C(F)(F)F)c(O[C@H]3CCCOC[C@H]3O)n2)cc1` (single isomer, unassigned) [Example 103a, cis-4-((4-((3-hydroxyoxepan-4-yl)oxy)-5-(trifluoromethyl)pyrimidin-2-yl)amino)-N-(methyl-d3)benzenesulfonamide]: the IC50 at CDK9/CyclinT1 was 100 to 1000 nM; on CDK6/CyclinD1, 100 to 1000 nM; at CDK7/CyclinH/MAT1, 100 to 1000 nM; on CDK1/CyclinB, 10 to 100 nM; at CDK4/Cyclin D1, 100 to 1000 nM; at CDK2/CyclinE1, less than 10 nM.

With `CNS(=O)(=O)c1ccc(Nc2ncc(C(F)(F)F)c(OC3CCCC3O)n2)cc1` (single isomer, unassigned) [Example 105a], the IC50 is 100 to 1000 nM on CDK9/CyclinT1; 100 to 1000 nM on CDK6/CyclinD1; 100 to 1000 nM on CDK7/CyclinH/MAT1; 10 to 100 nM at CDK1/CyclinB; 100 to 1000 nM at CDK4/Cyclin D1; less than 10 nM on CDK2/CyclinE1.

For the molecule `CC(C)NS(=O)(=O)c1ccc(Nc2ncc(C(F)(F)F)c(OC3CCCC3O)n2)cc1` (single isomer, unassigned) [Example 106a], the IC50 on CDK9/CyclinT1 is 10 to 100 nM; on CDK6/CyclinD1, 100 to 1000 nM; at CDK7/CyclinH/MAT1, 100 to 1000 nM; on CDK1/CyclinB, less than 10 nM; on CDK4/Cyclin D1 it was 10 to 100 nM; on CDK2/CyclinE1, less than 10 nM.

In the case of `O=S(=O)(NC1CC1)c1ccc(Nc2ncc(C(F)(F)F)c(OC3CCCC3O)n2)cc1` (single isomer, unassigned) [Example 107a], the IC50 was 100 to 1000 nM at CDK9/CyclinT1; 100 to 1000 nM on CDK6/CyclinD1; 100 to 1000 nM at CDK7/CyclinH/MAT1; 10 to 100 nM at CDK1/CyclinB; 100 to 1000 nM on CDK4/Cyclin D1; less than 10 nM at CDK2/CyclinE1.

For `[2H]C([2H])([2H])NS(=O)(=O)c1ccc(Nc2ncc(C(F)(F)F)c(OC3CCCC3O)n2)cc1` (single isomer, unassigned) [Example 109a], the IC50 is 100 to 1000 nM on CDK9/CyclinT1; 100 to 1000 nM on CDK6/CyclinD1; 100 to 1000 nM on CDK7/CyclinH/MAT1; 10 to 100 nM on CDK1/CyclinB; 100 to 1000 nM at CDK4/Cyclin D1; less than 10 nM at CDK2/CyclinE1.

With `[2H]C1([2H])CC(O)C(Oc2nc(Nc3ccc(S(=O)(=O)NC([2H])([2H])[2H])cc3)ncc2C(F)(F)F)C1` (single isomer, unassigned) [Example 110a], the IC50 on CDK9/CyclinT1 was 100 to 1000 nM; at CDK6/CyclinD1, 10 to 100 nM; at CDK7/CyclinH/MAT1, 100 to 1000 nM; at CDK1/CyclinB, 10 to 100 nM; on CDK4/Cyclin D1 it was 100 to 1000 nM; at CDK2/CyclinE1 it was less than 10 nM.

Source of the values: patent US20240166635A1, “AMINOHETEROARYL KINASE INHIBITORS” (Anrui Biomedical Technology (Guangzhou) Co.,Ltd., priority 2020, published 2024).
